Source: patent EP4775586A1, “DEUTERATED TETRACYCLIC DERIVATIVE AND USE THEREOF” (priority 2023, dated 2025)
In brackets after ≈: the same amount, converted by molar mass. Several values for one entry are separate records, joined by “and”; a condition that tells them apart may be missing. Equal entries are not always repeated. Structures can show the parent of a compound that is named as a salt. Where two headings read alike, the source gives them in different places.

How the values were obtained:
[1] = system: Mycobacterium tuberculosis H37Rv; assay: Minimum inhibitory concentration (MIC90) against Mycobacterium tuberculosis H37Rv, Middlebrook 7H9, 96-well plate, 15 days; assay type: cell-based; details: Mycobacterium tuberculosis H37Rv, 15 days of incubation, 90% inhibition of growth, visual reading
[2] = Pharmacokinetics and lung tissue distribution in mice, LC-MS/MS; assay type: in vivo, Balb/C mice; details: 100 mg/kg
Method: In this example, the pharmacokinetic parameters and lung tissue distribution of the deuterated compounds YF027, YF032, YF036, and YF044 and their respective non-deuterated control compounds (A, B, C, and D) were determined.
Balb/C mice, male (1 group at each time point, 5 mice per group, 55 mice per compound in total), 7-8 weeks old, weighing about 20 g, animal source: Beijing Vital River Laboratory Animal Technology Co., Ltd.
The test compound was completely dissolved in an 8% Tween-80 aqueous solution. A 10 mg/mL drug liquid was prepared for intraperitoneal injection and intragastric administration.
Single intragastric administration was performed at a dose of 100 mg/kg. The pharmacokinetic differences between the deuterated compounds YF027, YF032, YF036, and YF044 and their respective non-deuterated controls A, B, C, and D were compared.
The mice were fasted overnight before administration. In the experiment, orbital venous blood and lung tissue were collected from the mice at time points of no administration group (0 min) and 10 min, 20 min, 30 min, 1 h, 2 h, 3 h, 4 h, 6 h, 8 h, and 24 h after intragastric administration, and about 300 µL of blood was collected from the eyeballs each time.
The collected blood sample was placed in an anticoagulation tube, and quickly inverted and mixed well. The tube was temporarily placed on ice after being labeled. The blood samples temporarily stored on ice were subjected to low-temperature centrifugation within 1 h at 4 °C at 3000 rpm for 10 min. The supernatant obtained after centrifugation was plasma. The plasma was transferred to a new centrifuge tube and stored in a refrigerator at -80 °C for subsequent detection.
The lung tissues of the mice were collected, washed with pre-cooled normal saline to remove the residual blood and tissue fluid, dried with absorbent paper, weighed with a balance, and placed into a centrifuge tube. The tubes were marked and stored in a refrigerator at -80 °C.
The concentrations of the compounds of the present disclosure and control compounds in plasma and lung tissue were determined using LC-MS/MS. Table 2. Pharmacokinetic parameters of compound YF027 of the present disclosure and control compound A

[3] = system: Mycobacterium tuberculosis H37Rv; assay type: in vivo, BALB/c mice
[4] = system: liver microsomes; assay: Liver microsome incubation of positive control group (positive substrates); assay type: in vitro ADME, mouse
Method: This example was to detect the CYP450 metabolic enzyme phenotype of the deuterated compound YF027 and its non-deuterated control compound A (using a CYP450 enzyme metabolic phenotype research kit (recombinant enzymatic method/7 enzymes)-mouse liver microsome test).
• a. The test compound was prepared into a 40 mM stock solution for later use. 2.5 µL of the stock solution was taken and diluted with DMSO to a test compound concentration of 200 µM, and the compound at this concentration was used in subsequent tests. • b. The working solution concentration of the mixed positive substrates, phenacetin and testosterone, was 200 µM.
1) The components of the kit were thawed in an ice bath. The mixture was well mixed by vortexing and then placed on ice for later use. 2) In addition to the microsomes, the other components of the incubation systems were mixed according to the ratios and well mixed by pipetting, and the ratios of the incubation systems are shown below; Table 6. Incubation system of positive control group
3) Except for the negative control group (Table 9), 3.125 µL of liver microsomes was added to each of the above incubation systems to prepare 125 µL of reaction solution. The reaction solutions were well mixed by vortexing, and then placed in a water bath at 37 °C to initiate the reaction. A timer was set. […]

[5] = Balb/C mice, single intragastric administration, plasma
[6] = Balb/C mice, single intragastric administration, plasma, 1440 min

Molecule	MIC90 ([1]; 360 h, read-out: MIC90)	AUC(0-inf) ([2]; mouse, in vivo, po)	AUC(0-t) at 24 h ([2]; mouse, in vivo, po)	CL ([2]; mouse, in vivo, po)	Cmax ([2]; mouse, in vivo, po)	Tmax ([2]; mouse, in vivo, po)	half-life ([2]; mouse, in vivo, po)	MIC90 [1]	also measured
CCCC(=O)C1CCN(Cc2c(O)ccc3oc4c(c23)C(=O)OCc2cc(O)ccc2-4)CC1 [Compound C]	0.0625 µg/mL (≈ 0.139 µM)	5430 ng·h/mL	4960 ng·h/mL	307.2 mL/min/kg	944 ng/mL and 5420 ng/g	0.5 h	7.12 h		reduction of pulmonary bacterial load ([3]; mouse, in vivo): 1.99 log
O=C1OCc2cc(O)ccc2-c2oc3ccc(O)c(CN4CCC(c5cccc(Cl)c5)CC4)c3c21 [Compound B]	0.125 µg/mL (≈ 0.255 µM)	10400 ng·h/mL	10300 ng·h/mL	161 mL/min/kg	3570 ng/mL and 23400 ng/g	1 h	1.74 h		bacteriostatic activity in mice ([3]; 4 weeks intragastrically, Table 11 prints 50 mg/kg, text implies twice the dose of YF032): no bacteriostatic activity
8-((4-(3-Chlorophenyl)piperidin-1-yl-2,2,6,6-d4)methyl-d2)-3,9-dihydroxybenzo[5,6]oxepino[4,3-b]benzofuran-7(5H)-one hydrochloride [YF032]								0.0625 µg/mL	AUC0-∞ [2, 5]: 14032.28 ng·h/mL; CL [2, 5]: 119 mL/min/kg; Cmax [2, 5]: 4332.29 ng/mL; Tmax [2, 5]: 1.00 h; t1/2 [2, 5]: 1.85 h; AUC0-t [2, 6]: 14030.17 ng·h/mL; reduction in bacterial load ([3]; mouse, in vivo): 0.81 log
C[C@]12CC[C@H]3[C@@H](CCC4=CC(=O)CC[C@@]43C)[C@@H]1CC[C@@H]2O [testosterone]									metabolism of positive substrate ([4]; liver microsomes, after 90 min of incubation, 37 °C): almost completely metabolized
8-((4-Butanoylpiperidin-1-yl-2,2,6,6-d4)-methyl-d2)-3,9-dihydroxybenzo[5,6]oxepino[4,3-b]benzofuran-7(5H)-one hydrochloride [YF036]								0.03125 µg/mL	AUC0-∞ [2, 5]: 5883.88 ng·h/mL; CL [2, 5]: 283.3 mL/min/kg; Cmax [2, 5]: 2084.39 ng/mL; Tmax [2, 5]: 0.33 h; t1/2 [2, 5]: 4.75 h; AUC0-t [2, 6]: 5655.66 ng·h/mL; reduction of pulmonary bacterial load ([3]; mouse, in vivo): 1.87 log
CCOc1ccc(NC(C)=O)cc1 [phenacetin]									metabolism of positive substrate [4]: almost completely metabolized
CCCC(O)C1CCN(Cc2c(O)ccc3oc4c(c23)C(=O)OCc2cc(O)ccc2-4)CC1 (centres unmarked) [Compound D]	0.0156 µg/mL (≈ 0.0346 µM)	4500 ng·h/mL	4470 ng·h/mL	371.3 mL/min/kg	2110 ng/mL and 13500 ng/g		2.86 h		
3,9-Dihydroxy-8-((4-(1-hydroxybutyl-1-d)piperidin-2,2,6,6-d4-1-yl)methyl)benzo[5,6]oxepino[4,3-b]benzofuran-7(5H)-one hydrochloride [YF044]				150 mL/min/kg	4041.90 ng/mL	0.50 h		0.0078 µg/mL	AUC0-∞ ([2]; mouse, in vivo, po): 111067.0 ng·h/mL; Lung tissue distribution Cmax ([2]; mouse, in vivo, po): 43437.42 ng/g; t1/2 ([2]; mouse, in vivo, po): 2.03 h; AUC0-t ([2]; mouse, in vivo, po, 24 h): 11104.68 ng·h/mL
[2H]c1c(O)c(C([2H])([2H])N2CCC([2H])(C([2H])(O)C([2H])([2H])CC)CC2)c2c3c(oc2c1[2H])-c1ccc(O)cc1C([2H])([2H])OC3=O (centres unmarked) [YF048, 3,9-Dihydroxy-8-((4-(1-hydroxybutyl-1,2,2-d3)piperidin-1-yl-1-d)methyl-d2)benzo[5,6]oxepino[4,3-b]benzofuran-7(5H)-one-5,5,10,11-d4 hydrochloride]									MIC90 ([1]; Mycobacterium tuberculosis, H37RV, 360 h): 0.0156 µg/mL
[2H]c1c(O)c(C([2H])([2H])N2C([2H])([2H])CC(c3cccc(Cl)c3)CC2([2H])[2H])c2c3c(oc2c1[2H])-c1ccc(O)cc1C([2H])([2H])OC3=O [YF009, 8-((4-(3-Chlorophenyl)piperidin-1-yl-2,2,6,6-d4)methyl-d2)-3,9-dihydroxybenzo[5,6]oxepino[4,3-b]benzofuran-7(5H)-one-5,5,10,11-d4]	0.125 µg/mL (≈ 0.25 µM)								
